Patent US20250304537A1 (Repare Therapeutics Inc., priority 2022, published 2025)
Like-named read-outs stand apart in the source and are kept apart here.

Key:
[1] = system: PKMYT1 (CDK1 pThr14) in FUOV1 cells; experiment: PKMYT1 cell-based activity assay, CDK1 pThr14 AlphaLISA in FUOV1 cells; settings: read-out: FUOV-1 CDK1 pThr14 IC50
In short: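 FUOV1 cells were treated with PKMYT1 inhibitor for 2 h at 37 °C, then lysed. CDK1 pThr14 was measured by AlphaLISA, pairing an anti-pThr14 antibody with an anti-total CDK1 antibody (5 nM each). Signal read at 680/615 nm and used to derive IC50.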

[2] = target: recombinant human Myt1 (full length PKMYT1) (Homo sapiens (Human), UniProt Q99640); experiment: Recombinant human Myt1 kinase assay (ADP-Glo); format: biochemical; settings: 10 μM ATP
recombinant human Myt1 (full length PKMYT1), sequence (Q99640 whole entry): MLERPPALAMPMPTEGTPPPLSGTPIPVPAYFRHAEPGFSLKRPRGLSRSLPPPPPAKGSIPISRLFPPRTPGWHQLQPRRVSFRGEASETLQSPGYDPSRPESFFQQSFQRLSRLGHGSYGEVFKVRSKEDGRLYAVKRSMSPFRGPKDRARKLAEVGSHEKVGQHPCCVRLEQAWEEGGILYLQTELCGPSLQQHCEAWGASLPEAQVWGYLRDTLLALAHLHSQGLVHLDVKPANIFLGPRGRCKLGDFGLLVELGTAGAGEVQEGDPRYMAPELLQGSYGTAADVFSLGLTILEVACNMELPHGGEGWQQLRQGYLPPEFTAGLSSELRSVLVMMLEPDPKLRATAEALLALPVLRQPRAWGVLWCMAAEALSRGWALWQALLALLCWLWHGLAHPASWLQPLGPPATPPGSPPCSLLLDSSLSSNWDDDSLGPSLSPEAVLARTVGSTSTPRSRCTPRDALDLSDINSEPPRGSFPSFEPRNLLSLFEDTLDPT
In short: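 Full-length insect-cell-expressed human Myt1 (18 nM final) was preincubated with compound (0.5% DMSO) for 15 min at 22 °C. The reaction ran with 10 μM ATP for 60 min at 30 °C in HEPES buffer with Mg2+/Mn2+ and DTT. ADP formed was read by ADP-Glo luminescence, giving IC50 and % max inhibition.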

IC50 ([1]; 2 h, 2 h compound incubation) [µM] | IC50 [2] [µM] | IC50 ([1]; 2 h, 2 hours with compound) [µM] | IC50 ([1]; 2 h, 2 h incubation) [µM] | IC50 ([1]; 2 h incubation) [µM] | Structure (SMILES)
0.192 | 0.011 | – | – | – | Cc1ccnc(Nc2cc(F)ccc2-c2nc(C(N)=O)c(N)c(-c3c(C)ccc4[nH]ncc34)n2)c1 [Compound 616]
– | 0.006 | 0.046 | – | – | Cc1ccc2[nH]ncc2c1-c1nc(-c2cn(C)nc2NC2CCCC2)nc(C(N)=O)c1N [Compound 900]
0.029 | 0.004 | – | – | – | Cc1ccc2[nH]ncc2c1-c1nc(-c2cccnc2NC[C@@H]2CCOC2)nc(C(N)=O)c1N [Compound 602]
– | 0.006 | – | 0.181 | – | Cc1ccc2[nH]ncc2c1-c1cc(-c2ccnc(OCCOC3CC3)n2)nc(C(N)=O)c1N [Compound 205]
– | 0.003 | – | – | 0.016 | Cc1ccc(O)c(C)c1-c1cc(-c2ccncn2)nc(C(N)=O)c1N [Compound 89]
0.53 | 0.005 | – | – | – | Cc1cccc(Nc2ncccc2-c2nc(C(N)=O)c(N)c(-c3c(C)ccc4[nH]ncc34)n2)n1 [Compound 626]
– | 0.012 | – | 0.267 | – | COCCCOc1nccc(-c2cc(-c3c(C)ccc4[nH]ncc34)c(N)c(C(N)=O)n2)n1 [Compound 197]
0.041 | 0.006 | – | – | – | Cc1ccc2[nH]ncc2c1-c1nc(-c2ccccc2NC(=O)C(C)(C)C(F)(F)F)nc(C(N)=O)c1N [Compound 402]
0.136 | 0.004 | – | – | – | Cc1ccc2[nH]ncc2c1-c1nc(-c2cccc(F)c2NCC(F)F)nc(C(N)=O)c1N [Compound 435]
0.209 | 0.004 | – | – | – | Cc1ccc2[nH]ncc2c1-c1cc(C(N)=O)nc(-c2cccnc2Nc2nc(F)ccc2F)n1 [Compound 499, 2-(2-((3,6-difluoropyridin-2-yl)amino)pyridin-3-yl)-6-(5-methyl-1H-indazol-4-yl)pyrimidine-4-carboxamide]
0.093 | 0.004 | – | – | – | Cc1ccc2[nH]ncc2c1-c1nc(-c2ccccc2NC(=O)C2(C(F)(F)F)CC2)nc(C(N)=O)c1N [Compound 405]
0.023 | 0.004 | – | – | – | Cc1ccc2[nH]ncc2c1-c1nc(-c2ccccc2NC(=O)C2(C#N)CC2)nc(C(N)=O)c1N [Compound 423]
– | 0.006 | – | 0.368 | – | Cc1ccc(O)c(C)c1-c1cc(-c2ccco2)nc(C(N)=O)c1N [Compound 50]
0.007 | 0.004 | – | – | – | Cc1cncnc1Nc1cc(F)ccc1-c1nc(C(N)=O)c(N)c(-c2c(C)ccc3[nH]ncc23)n1 [Compound 617]
– | 0.006 | – | 0.108 | – | Cc1ccc2[nH]ncc2c1-c1nc(-c2cccc3cn[nH]c23)nc(C(N)=O)c1N [Compound 323]
– | 0.012 | – | 0.551 | – | Cc1ccc2[nH]ncc2c1-c1cc(-c2ccncn2)nc(C(N)=O)c1N [Compound 105]
– | 0.023 | – | 0.717 | – | Cc1ccc2[nH]ncc2c1-c1nc(-c2ccns2)nc(C(N)=O)c1N [Compound 109]
0.277 | 0.006 | – | – | – | Cc1ccc2[nH]ncc2c1-c1nc(-c2ccc(F)cc2Nc2ccnc(C(C)C)c2)nc(C(N)=O)c1N [Compound 619]
– | 0.006 | – | 0.26 | – | Cc1ccc(O)c(C)c1-c1cc(-c2ccnc(N)c2)cc(C(N)=O)c1N [Compound 64]
– | 0.003 | – | 0.076 | – | Cc1ccc(O)c(C)c1-c1cc(-c2cnccn2)nc(C(N)=O)c1N [Compound 26]
– | 0.049 | – | > 10 | – | NC(=O)c1nc(-c2ccccc2)nc(-c2ccc(F)c3[nH]ncc23)c1N [Compound 121]
0.885 | 0.01 | – | – | – | Cc1ccc2[nH]ncc2c1-c1nc(-c2cccnc2Nc2cccc(F)c2)nc(C(N)=O)c1N [Compound 600]
0.124 | 0.016 | – | – | – | Cc1ccc2[nH]ncc2c1-c1nc(-c2ccccc2NCC2(C)CC2)nc(C(N)=O)c1N [Compound 452]

IC50 ([1]; 2 h, 2 h compound incubation) [µM] | IC50 [2] [µM] | IC50 ([1]; 2 h, 2 hours with compound) [µM] | IC50 ([1]; 2 h, 2 h incubation) [µM] | IC50 ([1]; 2 h incubation) [µM] | Structure (SMILES)
0.319 | 0.006 | – | – | – | Cc1ccc2[nH]ncc2c1-c1nc(-c2cccnc2Nc2ccccc2)nc(C(N)=O)c1N [Compound 607]
– | 0.031 | – | 0.737 | – | Cc1ccc(O)cc1-c1nc(-c2ccc(C(F)(F)F)cc2)nc(C(N)=O)c1N [Compound 7]
– | 0.004 | – | 0.903 | – | Cc1ccc2[nH]ncc2c1-c1cc(-c2ccnc(OCCc3ccccn3)n2)nc(C(N)=O)c1N [Compound 239]
– | 0.002 | – | 0.272 | – | Cc1ccc(O)c(C)c1-c1cc(-c2cc(C(F)(F)F)ccn2)nc(C(N)=O)c1N [Compound 67]
0.398 | 0.016 | – | – | – | Cc1ccc2[nH]ncc2c1-c1nc(-c2ccccc2NC(=O)OC(C)(C)C)nc(C(N)=O)c1N [Compound 474]
0.37 | 0.003 | – | – | – | COCCNc1ccccc1-c1nc(C(N)=O)c(N)c(-c2c(C)ccc3[nH]ncc23)n1 [Compound 464]
– | 0.011 | – | 0.319 | – | Cc1ccc(O)cc1-c1nc(-c2cccc(N3CCOCC3)c2)nc(C(N)=O)c1N [Compound 27]
0.065 | 0.007 | – | – | – | COC(C)(C)C(=O)Nc1ccccc1-c1nc(C(N)=O)c(N)c(-c2c(C)ccc3[nH]ncc23)n1 [Compound 420]
– | 0.047 | – | 1.69 | – | Cc1ccc2[nH]ncc2c1-c1cc(-c2ccc(-c3nccs3)nc2)nc(C(N)=O)c1N [Compound 186]
– | 0.007 | – | 0.122 | – | Cc1ccc2[nH]ncc2c1-c1cc(-c2ccnc(OC3COC3)n2)nc(C(N)=O)c1N [Compound 161]
0.143 | 0.017 | – | – | – | Cc1ccc2[nH]ncc2c1-c1nc(-c2cccc3c2NC(=O)C32CC2)nc(C(N)=O)c1N [Compound 399]
0.373 | 0.019 | – | – | – | Cc1ccc2[nH]ncc2c1-c1nc(-c2ccccc2NC(=O)[C@]2(C)CCCN2)nc(C(N)=O)c1N [Compound 422]
– | 0.007 | – | 0.243 | – | Cc1ccc2[nH]ncc2c1-c1cc(-c2cccc(OCc3cccnn3)n2)nc(C(N)=O)c1N [Compound 242]
0.138 | 0.014 | – | – | – | Cc1ccc2[nH]ncc2c1-c1nc(-c2cc(F)c(F)cc2NC2CC(F)(F)C2)nc(C(N)=O)c1N [Compound 475]
– | 0.028 | – | 3.53 | – | Cc1ccc(O)cc1-c1nc(-c2ccc(Cl)cc2)nc(C(N)=O)c1N [Compound 18]
– | 0.017 | 0.447 | – | – | Cc1ccc2[nH]ncc2c1-c1nc(-c2cccnc2Nc2cscn2)nc(C(N)=O)c1N [Compound 894]
– | 0.007 | – | 0.449 | – | Cc1ccc2[nH]ncc2c1-c1cc(-c2cccc(OC3CCCOC3)n2)nc(C(N)=O)c1N (stereo not drawn) [Compound 306]
– | 0.007 | – | 0.169 | – | Cc1ccc(O)c(C)c1-c1cc(-c2cccc(N3CCOCC3)c2)nc(C(N)=O)c1N [Compound 42]
0.044 | 0.009 | – | – | – | CC1(C(=O)Nc2cc(F)c(F)cc2-c2nc(C(N)=O)c(N)c(-c3c(Cl)ccc4[nH]ncc34)n2)CC1 [Compound 459]
0.026 | 0.003 | – | – | – | Cc1ccc2[nH]ncc2c1-c1nc(-c2ccccc2NC(=O)C2(C)CC2(F)F)nc(C(N)=O)c1N (stereo not drawn) [Compound 443]
– | 0.01 | – | 0.943 | – | Cc1ccc(O)cc1-c1nc(-c2ccnc(N)c2)nc(C(N)=O)c1N [Compound 4]
– | 0.002 | – | 0.198 | – | Cc1ccc2[nH]ncc2c1-c1cc(-c2cccc(O[C@@H]3CCOC3)n2)nc(C(N)=O)c1N (atropisomer, axis not shown) [Compound 227, (R)-5-amino-4-(5-methyl-1H-indazol-4-yl)-6′-(((R)-tetrahydrofuran-3-yl)oxy)-[2,2′-bipyridine]-6-carboxamide]
